Source: PubChem BioAssay AID2060888 (Molecular Pharmacology Branch, DTP, NCI, 2025)

System: 695427-040-R-J1-PDC complex spheroid viability
Assay: Anticancer human tumor 695427-040-R-J1-PDC patient-derived colon adenocarcinoma cell line growth inhibition [RAS]
Details: for IC50: curve of first compound; for viability, T/C: stronger effect = lower value
Method in brief: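 Tumour cells grown as complex spheroids with HUVEC endothelial cells and mesenchymal stem cells, treated with RAS pathway inhibitor combinations. Each agent spans half-log steps from near clinical Cmax, or 10 microM where Cmax is unknown.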

[1] = second compound 0.00316 µM, first compound 0.0316 µM
[2] = second compound 0.00316 µM, first compound 0.1 µM
[3] = second compound 0.00316 µM, first compound 0.316 µM
[4] = second compound 0.00316 µM, first compound 1 µM
[5] = second compound 0.01 µM, first compound 0.0316 µM
[6] = second compound 0.01 µM, first compound 0.1 µM
[7] = second compound 0.01 µM, first compound 0.316 µM
[8] = second compound 0.01 µM, first compound 1 µM
[9] = second compound 0.0316 µM, first compound 0.0316 µM
[10] = second compound 0.0316 µM, first compound 0.1 µM
[11] = second compound 0.0316 µM, first compound 0.316 µM
[12] = second compound 0.0316 µM, first compound 1 µM
[13] = second compound 0.1 µM, first compound 0.0316 µM
[14] = second compound 0.1 µM, first compound 0.1 µM
[15] = second compound 0.1 µM, first compound 0.316 µM
[16] = second compound 0.1 µM, first compound 1 µM
[17] = second compound 0.316 µM, first compound 0.0316 µM
[18] = second compound 0.316 µM, first compound 0.1 µM
[19] = second compound 0.316 µM, first compound 0.316 µM
[20] = second compound 0.316 µM, first compound 1 µM
[21] = second compound 1 µM, first compound 0.0316 µM
[22] = second compound 1 µM, first compound 0.1 µM
[23] = second compound 1 µM, first compound 0.316 µM
[24] = second compound 1 µM, first compound 1 µM
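Further: viability read after seven days of drug exposure.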
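Wherever viability, T/C is given: 100% = DMSO vehicle control viability.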

Compound `O=C(c1ccc(F)c(F)c1Nc1ccc(I)cc1F)N1CC(O)([C@@H]2CCCCN2)C1` + C=CC(=O)N1CCN(c2nc(OCC3CCCN3C)nc3c(F)c(-c4nc(N)cc(C)c4C(F)(F)F)c(Cl)cc23)C(C)C1 has an IC50 (second compound 0.00316 µM) of 37 nM, an IC50 (second compound 0.01 µM) of 39.8 nM and an IC50 (second compound 0.0316 µM) of 39.6 nM. The IC50 (second compound 0.1 µM) was 46.3 nM, the IC50 (second compound 0.316 µM) was 46.6 nM and the IC50 (second compound 1 µM) was 56.4 nM. For the same compound, the viability, T/C (second compound 0.00316 µM, first compound 0.00316 µM) was 81.5%, the viability, T/C (second compound 0.00316 µM, first compound 0.01 µM) was 75.2% and the viability, T/C [1] was 50.1%. The viability, T/C [2] was 32.4%, the viability, T/C [3] was 13.7% and the viability, T/C [4] was 6.97%. It also gave a viability, T/C (second compound 0.01 µM, first compound 0.00316 µM) of 85.8%, a viability, T/C (second compound 0.01 µM, first compound 0.01 µM) of 74.7% and a viability, T/C [5] of 54.9%. It also gave a viability, T/C [6] of 30.2%, a viability, T/C [7] of 15.9% and a viability, T/C [8] of 2.53%. The viability, T/C (second compound 0.0316 µM, first compound 0.00316 µM) was 86.5%, the viability, T/C (second compound 0.0316 µM, first compound 0.01 µM) was 72% and the viability, T/C [9] was 58%. It also gave a viability, T/C [10] of 27.8%, a viability, T/C [11] of 15.4% and a viability, T/C [12] of 4.49%. The viability, T/C (second compound 0.1 µM, first compound 0.00316 µM) was 87.7%, the viability, T/C (second compound 0.1 µM, first compound 0.01 µM) was 73.1% and the viability, T/C [13] was 60.8%. The viability, T/C [14] was 32.6%, the viability, T/C [15] was 16.4% and the viability, T/C [16] was 5.49%. For the same compound, the viability, T/C (second compound 0.316 µM, first compound 0.00316 µM) was 82.8%, the viability, T/C (second compound 0.316 µM, first compound 0.01 µM) was 86.4% and the viability, T/C [17] was 55.4%. For the same compound, the viability, T/C [18] was 31.6%, the viability, T/C [19] was 15.2% and the viability, T/C [20] was 2.92%. It also gave a viability, T/C (second compound 1 µM, first compound 0.00316 µM) of 78.8%, a viability, T/C (second compound 1 µM, first compound 0.01 µM) of 81.7% and a viability, T/C [21] of 60.2%. The viability, T/C [22] was 37.8%, the viability, T/C [23] was 15.1% and the viability, T/C [24] was 3.14%.
In the case of `NC1c2ccccc2OC12CCN(c1cnc3c(N4CCCc5ncccc54)n[nH]c3n1)CC2` (centres undefined) + C=CC(=O)N1CCN(c2nc(OCC3CCCN3C)nc3c(F)c(-c4nc(N)cc(C)c4C(F)(F)F)c(Cl)cc23)C(C)C1, the IC50 (second compound 0.00316 µM) is reported as 4310 nM, the IC50 (second compound 0.01 µM) is reported as 3210 nM and the IC50 (second compound 0.0316 µM) is reported as 2880 nM. It also gave an IC50 (second compound 0.1 µM) of 2160 nM, an IC50 (second compound 0.316 µM) of 3370 nM and an IC50 (second compound 1 µM) of 1060 nM. For the same compound, the viability, T/C [1] was 72.3%, the viability, T/C [2] was 68.1% and the viability, T/C [3] was 63.8%. For the same compound, the viability, T/C [4] was 57.2%, the viability, T/C (second compound 0.00316 µM, first compound 3.16 µM) was 52.4% and the viability, T/C (second compound 0.00316 µM, first compound 10 µM) was 44.9%. The viability, T/C [5] was 78.6%, the viability, T/C [6] was 73.3% and the viability, T/C [7] was 63.3%. The viability, T/C [8] was 59%, the viability, T/C (second compound 0.01 µM, first compound 3.16 µM) was 51.6% and the viability, T/C (second compound 0.01 µM, first compound 10 µM) was 41%. The viability, T/C [9] was 80.1%, the viability, T/C [10] was 73.6% and the viability, T/C [11] was 71.4%. The viability, T/C [12] was 56.8%, the viability, T/C (second compound 0.0316 µM, first compound 3.16 µM) was 50.4% and the viability, T/C (second compound 0.0316 µM, first compound 10 µM) was 43.1%. For the same compound, the viability, T/C [13] was 78.2%, the viability, T/C [14] was 74.8% and the viability, T/C [15] was 60.1%. The viability, T/C [16] was 56.9%, the viability, T/C (second compound 0.1 µM, first compound 3.16 µM) was 46.6% and the viability, T/C (second compound 0.1 µM, first compound 10 µM) was 41.9%. It also gave a viability, T/C [17] of 74.6%, a viability, T/C [18] of 68.4% and a viability, T/C [19] of 64.8%. The viability, T/C [20] was 60.2%, the viability, T/C (second compound 0.316 µM, first compound 3.16 µM) was 49.6% and the viability, T/C (second compound 0.316 µM, first compound 10 µM) was 41.2%. It also gave a viability, T/C [21] of 70.6%, a viability, T/C [22] of 62.2% and a viability, T/C [23] of 53.6%. The viability, T/C [24] was 52%, the viability, T/C (second compound 1 µM, first compound 3.16 µM) was 47.2% and the viability, T/C (second compound 1 µM, first compound 10 µM) was 36%.
